One series deals with recombinant human ACC1 (Homo sapiens (Human), UniProt Q13085). As to the kind of experiment: Measurement of inhibitory activity of human ACC1 (MALDI-TOF MS). The series is classed as biochemical. Conditions: read-out: IC50 hACC1. From the text:
A cDNA encoding human ACC1 protein (1 amino acid residue to 2346 amino acid residues from the N-terminus) was cloned from a human liver cDNA library (BioChain Institute Inc.), myc tag and His-tag sequences were introduced at the 3′ end, and then inserted into pIEXBAC3 (Novagen). A recombinant baculovirus was produced in accordance with the protocol for Flash BACGOLD (Oxford Expression Technologies Ltd.), and Sf-9 cells were infected therewith to express human ACC1 protein. The recovered cells were crushed, filtered through a filter, and then subjected to Ni affinity chromatography and anion exchange chromatography. Fractions containing human ACC1 protein were collected to obtain recombinant human ACC1.
The recombinant human ACC1 and the recombinant human ACC2 obtained from the above Preparation Examples were preincubated in an assay buffer (50 mM HEPES-KOH (pH 7.4), 10 mM magnesium chloride, 6 to 10 mM potassium citrate, 4 mM glutathione reduced form, and 1.5 mg/ml bovine serum albumin) for 1 hour. Then, 5 μL of the pre-incubated enzyme solution and 5 μL of a substrate solution (50 mM HEPES-KOH (pH 7.4), 1 mM ATP, 0.8 mM acetyl-CoA, and 25 to 50 mM potassium bicarbonate) were added to a 384-well microplate into which 0.2 μl of each of solutions of the compound of the present invention (DMSO had been dispensed, and the mixture was centrifuged and shaken, and then incubated in a wet box at room temperature for 1 to 3 hours. After incubation, the enzymatic reaction was stopped by addition of EDTA, and then the sample was co-crystallized with an α-cyano-4-hydroxy cinnamic acid (CHCA) matrix on a MALDI target plate, and measurement was performed in a reflector negative mode using a matrix-assisted laser desorption ionization-time-of-flight mass spectrometer (MALDI-TOF MS). Deprotonated ions of the substrate acetyl-CoA (AcCoA) and the reaction product malonyl-CoA (MalCoA) were detected, and the intensity of each signal was used to calculate a conversion rate to malonyl-CoA or succinyl-CoA, i.e., intensity of [MalCoA-H]—/(intensity of [MalCoA-H]-+intensity of [AcCoA.H].). […] The potassium citrate concentration in the assay buffer, the potassium bicarbonate concentration in the substrate solution, and the incubation time were adjusted within the above concentrations or reaction times for each lot of the enzyme to be used.

Series [1] is described as follows: Metabolic stability test, human liver microsomes. Type of series: in vitro ADME. Conditions: 37° C., 30 minutes, NADPH. The procedure:
Commercially available pooled human liver microsomes were reacted with the compound of the present invention for a given time. A residual rate was calculated by comparison between the reacted sample and the unreacted sample to evaluate a degree at which the compound of the present invention is metabolized in the liver.
The compound was reacted at 37° C. for 0 minutes or 30 minutes in the presence of 1 mmol/L NADPH in 0.2 mL of a buffer (50 mmol/L Tris-HCl pH 7.4, 150 mmol/L potassium chloride, and 10 mmol/L magnesium chloride) containing 0.5 mg protein/mL of the human liver microsomes (oxidative reaction). After the reaction, 50 μL of the reaction solution was added to 100 μL of a solution of methanol/acetonitrile=1/1 (v/v) and mixed, and the mixture was centrifuged at 3000 rpm for 15 minutes. The compound of the present invention in the centrifuged supernatant was quantified by LC/MS/MS or solid-phase extraction (SPE)/MS. The amount of the compound of the present invention remained after the reaction was calculated with the amount of the compound at 0 minutes of the reaction defined as 100%.

Series [2] in a line: Metabolic stability test, rat. Type of series: in vitro ADME. Particulars: 30 minutes.
The test system of another series is Atgl knockout mice. As to the kind of experiment: Long-chain fatty acid metabolizing ability in Atgl knockout mouse myocardium (BMIPP SPECT/CT wash out rate). The series is classed as in vivo. The procedure: Atgl (adipose-triglyceride lipase) knockout mice are known as non clinical models of TGCV. Atgl knockout mice (KO mice) deficient in the Atgl gene were each produced by a known method.
The compound of the present invention was suspended in a 0.5% HPMC aqueous solution so that the dose of the same was 30 or 45 mg/kg/10 mL, and orally administered to 6 to 7-week-old male Atgl knockout mice on the day before and the day when the long chain fatty acid metabolizing ability was measured. On the day of measurement of long-chain fatty acid metabolizing ability, 14.6 MBq/mouse of iodine-123-8 methyl iodophenyl-pen-tadecanoic acid (BMIPP) was administered via the tail vein. At 1 hour and 4 hours after administration, the mice were imaged by single-photon emission computed tomography (SPECT)/CT under anesthesia, and the radioactivity of the administered BMIPP in the myocardium was measured. The metabolism of long-chain fatty acids in the myocardium was calculated as a wash out rate by the following formula.

The next series relates to Crl:CD (SD) rats. The series is described as follows: Influence on platelet count in SD rats. The series is classed as in vivo. Particulars: for Platelet count: mean ± standard deviation; for effect on platelet count: within the dose range used for evaluation. The method, then: The compound of the present invention was suspended in a 0.5% methylcellulose solution so as to have a dose of 50 to 600 mg/kg/day, and was orally repeatedly administered for 4 days to 6-week-old male Crl:CD (SD) rats under non-fasted conditions. On day 5 from the start of administration, blood was collected from the abdominal vena cava under anesthesia, and […]. A platelet count in plasma was evaluated with an automatic hemocytometer.

Another series deals with C57BL/6JJcl mice. The series is described as follows: Plasma triglyceride concentration in mice fed ultra-high fat, choline-deficient, methionine-lowered diet. Type of series: in vivo. Conditions: for Plasma triglyceride concentration: bid, mean ± standard error; for plasma triglyceride concentration versus vehicle-administered group: mice fed ultra-high fat, choline-deficient, methionine-lowered diet, repeated oral b.i.d. The procedure:
Six-week-old male C57BL/6JJcl mice were fed an ultra-high fat, choline-deficient, methionine-lowered diet (60 kcal % fat content, using lard, choline-deficient, methionine-lowered (0.1%)), and at the same time, the compound of the present invention was suspended in a vehicle (0.5% methylcellulose aqueous solution) so as to have a dose of 3 to 45 mg/kg/10 mL, and orally repeatedly administered (b.i.d.) for 8 weeks. Blood was collected from the tail vein during the repeated administration period, and biochemical parameters in plasma were measured.

For the molecule `CC(=O)N[C@@H](C)CCC1OCC(Oc2nc3c(F)c(OC4CC4)ccc3n2C)CO1` (stereo partly shown) [Compound I-13], the IC50 at recombinant human ACC1 was 0.91 µM. In addition, the “Remaining amount of compound, Human” value in series [1] amounted to 95.4%. For the same molecule, the “Remaining amount of compound, Rat” value in series [2] came to 87%. Further, the “long-chain fatty acid metabolizing ability in myocardium (wash out rate)” value in the series on Atgl knockout mice (45 mg/kg/10 mL oral, p<0.05, Welch's t test) was “significant improving effect”. The values for the Platelet count in the series on Crl:CD (SD) rats (50 mg/kg/day oral for 4 days), with Crl:CD (SD) rats (100 mg/kg/day oral for 4 days) and in the series on Crl:CD (SD) rats (200 mg/kg/day oral for 4 days) were 1079 ± 73, 1048 ± 65 and 1122 ± 87, respectively. Also, the “effect on platelet count” value in the series with Crl:CD (SD) rats is given as “did not affect”. In addition, the Plasma triglyceride concentration with C57BL/6JJcl mice (15 mg/kg, 0 weeks) was determined as 61.6 ± 3.1 mg/dL; with C57BL/6JJcl mice (15 mg/kg, 1 week), 23.7 ± 1.0 mg/dL; with C57BL/6JJcl mice (15 mg/kg, 3 weeks) it was 19.8 ± 1.2 mg/dL; in the series on C57BL/6JJcl mice (15 mg/kg, 5 weeks), 19.0 ± 1.7 mg/dL; in the series on C57BL/6JJcl mice (15 mg/kg, 7 weeks) it was 18.8 ± 1.2 mg/dL; in the series with C57BL/6JJcl mice (45 mg/kg, 0 weeks), 63.6 ± 3.7 mg/dL. The Plasma triglyceride concentration was 22.4 ± 2.5 mg/dL in the series on C57BL/6JJcl mice (45 mg/kg, 1 week); 18.9 ± 1.4 mg/dL with C57BL/6JJcl mice (45 mg/kg, 3 weeks); 16.5 ± 1.7 mg/dL in the series on C57BL/6JJcl mice (45 mg/kg, 5 weeks); 15.1 ± 1.0 mg/dL in the series on C57BL/6JJcl mice (45 mg/kg, 7 weeks). The “plasma triglyceride concentration versus vehicle-administered group” value in the series with C57BL/6JJcl mice was “lower than that in the vehicle-administered group”.

On to `C[C@@H](COC1CCC(Oc2nc3c(F)cc(OC4CC4)cc3n2C)CC1)NC(N)=O` (stereo partly shown) [Compound I-12], for which the IC50 at recombinant human ACC1 turned out to be 6.9 µM. Moreover, the “Remaining amount of compound, Human” value in series [1] worked out at 83.3%. Also, the “Remaining amount of compound, Rat” value in series [2] was 85.5%. Moreover, in the series on Atgl knockout mice (30 mg/kg/10 mL oral, p=0.096, Welch's t test), the “long chain fatty acid metabolizing ability in myocardium (wash out rate)” value is given as “tended to improve”. Further, the Platelet count in the series on Crl:CD (SD) rats (100 mg/kg/day oral for 4 days) was found to be 987 ± 86; in the series with Crl:CD (SD) rats (300 mg/kg/day oral for 4 days), 988 ± 43; with Crl:CD (SD) rats (600 mg/kg/day oral for 4 days) it was 1061 ± 85. Moreover, the “effect on platelet count” value in the series on Crl:CD (SD) rats is recorded as “did not affect”. For the same molecule, the Plasma triglyceride concentration in the series on C57BL/6JJcl mice (3 mg/kg, 2 weeks) amounted to 32.9 ± 1.3 mg/dL; with C57BL/6JJcl mice (3 mg/kg, 4 weeks), 22.4 ± 2.1 mg/dL; in the series with C57BL/6JJcl mice (3 mg/kg, 7 weeks), 27.2 ± 1.5 mg/dL; in the series with C57BL/6JJcl mice (10 mg/kg, 2 weeks) it was 30.4 ± 2.2 mg/dL; in the series with C57BL/6JJcl mice (10 mg/kg, 4 weeks), 21.5 ± 1.8 mg/dL; with C57BL/6JJcl mice (10 mg/kg, 7 weeks) it was 22.1 ± 1.9 mg/dL. Moreover, the Plasma triglyceride concentration with C57BL/6JJcl mice (30 mg/kg, 2 weeks) is on record as 23.1 ± 2.5 mg/dL; in the series with C57BL/6JJcl mice (30 mg/kg, 4 weeks) it was 11.1 ± 1.1 mg/dL; in the series with C57BL/6JJcl mice (30 mg/kg, 7 weeks), 16.2 ± 1.6 mg/dL. For the same molecule, the “plasma triglyceride concentration versus vehicle-administered group” value with C57BL/6JJcl mice is on record as “lower than that in the vehicle-administered group”.

The values above are taken from patent US20250041279A1, “THERAPEUTIC MEDICINE FOR HEART DISEASE OR SKELETAL MUSCLE DISEASE” (SHIONOGI & CO., LTD., priority 2021, published 2025).
